Tests used:
Conditions in all cases: 48 h
P12-Ichikawa [1] = experiment: AUC of viability dose-response curve (% viability x log10 dose units); higher = less sensitive
Outline: (§1)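 Area under the curve was integrated by trapezoidal rule from a log-logistic fit of normalised viability, with curves exceeding full viability scaled and quality-control failures removed. The fit had four parameters over log10 doses. Viability came from CellTiter-Glo One luminescence, normalised per plate to DMSO and cell-free wells, after leukemia cells adapted to each medium (500 or 1000 cells/well, 1536-well plates) were exposed to library compounds in DMSO for 48 h at 37°C. The 11 threefold doses ran from 47 μM to 0.79 nM.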

NOMO1 [2] = experiment: as above
Outline: as §1

SEM cells [3] = experiment: as above
Outline: as §1

P12-Ichikawa [4] = experiment: cell viability relative to DMSO control; higher = less cytotoxic
Outline: (§2)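 NOMO1 or SEM cells were plated at 500 cells/well and P12-Ichikawa cells at 1000 cells/well in 1536-well plates (5 μl), after each leukemia line had been adapted for at least four passages in each medium. Pin dosing delivered library compounds in DMSO at 11 threefold concentrations, 47 μM to 0.79 nM. CellTiter-Glo One luminescence was read after 48 h at 37°C. Viability is reported as a per-plate percentage of DMSO wells, with cell-free wells as background.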

NOMO1 [5] = experiment: as above
Outline: as §2

SEM cells [6] = experiment: as above
Outline: as §2

Cc1cc(C(=O)N2CCN(c3cccc(Cl)c3)CC2)n(-c2ccccc2)n1
AUC of viability dose-response curve
Conditions	NOMO1 [2]	P12-Ichikawa [1]	SEM cells [3]
HPLM + 10% dialyzed FBS	364	349	354
RPMI 5 mM glucose + 10% FBS	389	373	368
RPMI 5 mM glucose + 10% dialyzed FBS	375	374	357

cell viability [%]
Conditions	NOMO1 [5]	P12-Ichikawa [4]	SEM cells [6]
HPLM + 10% dialyzed FBS, 0.000781 µM	116	109	109
HPLM + 10% dialyzed FBS, 0.00234 µM	115	107	96.7
HPLM + 10% dialyzed FBS, 0.00702 µM	114	103	102
HPLM + 10% dialyzed FBS, 0.0211 µM	97.7	107	102
HPLM + 10% dialyzed FBS, 0.0632 µM	115	103	109
HPLM + 10% dialyzed FBS, 0.19 µM	116	103	96
HPLM + 10% dialyzed FBS, 0.569 µM	91.8	105	92.5
HPLM + 10% dialyzed FBS, 1.71 µM	70.7	50.2	52.6
HPLM + 10% dialyzed FBS, 5.12 µM	30.7	23.9	25.5
HPLM + 10% dialyzed FBS, 15.4 µM	26.5	10.1	21.7
HPLM + 10% dialyzed FBS, 46.1 µM	29.3	12.5	18.2
RPMI 5 mM glucose + 10% FBS, 0.000781 µM	90.3	105	107
RPMI 5 mM glucose + 10% FBS, 0.00234 µM	99.9	113	118
RPMI 5 mM glucose + 10% FBS, 0.00702 µM	96.1	102	116
RPMI 5 mM glucose + 10% FBS, 0.0211 µM	97.5	105	122
RPMI 5 mM glucose + 10% FBS, 0.0632 µM	94.5	101	107
RPMI 5 mM glucose + 10% FBS, 0.19 µM	99.7	90.2	110
RPMI 5 mM glucose + 10% FBS, 0.569 µM	99.6	101	120
RPMI 5 mM glucose + 10% FBS, 1.71 µM	92.2	80.5	81.5
RPMI 5 mM glucose + 10% FBS, 5.12 µM	69.7	36.8	34.8
RPMI 5 mM glucose + 10% FBS, 15.4 µM	15.9	10.4	17.5
RPMI 5 mM glucose + 10% FBS, 46.1 µM	14.8	16.6	15.6
RPMI 5 mM glucose + 10% dialyzed FBS, 0.000781 µM	98	101	105
RPMI 5 mM glucose + 10% dialyzed FBS, 0.00234 µM	100	92.8	103
RPMI 5 mM glucose + 10% dialyzed FBS, 0.00702 µM	96.6	105	112
RPMI 5 mM glucose + 10% dialyzed FBS, 0.0211 µM	90.7	104	89.4
RPMI 5 mM glucose + 10% dialyzed FBS, 0.0632 µM	89.7	103	114
RPMI 5 mM glucose + 10% dialyzed FBS, 0.19 µM	109	91.2	100
RPMI 5 mM glucose + 10% dialyzed FBS, 0.569 µM	90.5	95.5	93.3
RPMI 5 mM glucose + 10% dialyzed FBS, 1.71 µM	85.9	70.1	61.1
RPMI 5 mM glucose + 10% dialyzed FBS, 5.12 µM	38.3	40.9	24.4
RPMI 5 mM glucose + 10% dialyzed FBS, 15.4 µM	22	20.5	19.5
RPMI 5 mM glucose + 10% dialyzed FBS, 46.1 µM	24.1	20.4	18.3

CO/C1=C/C(C)=C\[C@@H](C)[C@@H](O)[C@@H](C)C/C(C)=C\C=C/[C@H](OC)[C@@H]([C@@H](C)[C@@H](O)[C@H](C)[C@@]2(O)C[C@@H](O)[C@H](C)[C@@H](C(C)C)O2)OC1=O
AUC of viability dose-response curve
Conditions	NOMO1 [2]	P12-Ichikawa [1]	SEM cells [3]
HPLM + 10% dialyzed FBS	208	291	213
RPMI 5 mM glucose + 10% FBS	229	263	211
RPMI 5 mM glucose + 10% dialyzed FBS	218	225	206

cell viability [%]
Conditions	NOMO1 [5]	P12-Ichikawa [4]	SEM cells [6]
HPLM + 10% dialyzed FBS, 0.000781 µM	79.5	88.2	91
HPLM + 10% dialyzed FBS, 0.00234 µM	97.1	99.5	74.8
HPLM + 10% dialyzed FBS, 0.00702 µM	91.8	91.5	91
HPLM + 10% dialyzed FBS, 0.0211 µM	90.6	96.3	48.6
HPLM + 10% dialyzed FBS, 0.0632 µM	58.8	81.7	28.7
HPLM + 10% dialyzed FBS, 0.19 µM	12.1	39.5	27
HPLM + 10% dialyzed FBS, 0.569 µM	12.7	34.8	27
HPLM + 10% dialyzed FBS, 1.71 µM	11.1	34.8	25.2
HPLM + 10% dialyzed FBS, 5.12 µM	12.6	37.5	32
HPLM + 10% dialyzed FBS, 15.4 µM	10.5	36.8	29
HPLM + 10% dialyzed FBS, 46.1 µM	9.72	33	29.7
RPMI 5 mM glucose + 10% FBS, 0.000781 µM	105	89	80.9
RPMI 5 mM glucose + 10% FBS, 0.00234 µM	95.9	96.6	75
RPMI 5 mM glucose + 10% FBS, 0.00702 µM	107	99.1	88.1
RPMI 5 mM glucose + 10% FBS, 0.0211 µM	82.3	88.6	46.8
RPMI 5 mM glucose + 10% FBS, 0.0632 µM	88.7	70.1	29.2
RPMI 5 mM glucose + 10% FBS, 0.19 µM	12.5	37.8	26.2
RPMI 5 mM glucose + 10% FBS, 0.569 µM	9.12	29.4	24.6
RPMI 5 mM glucose + 10% FBS, 1.71 µM	7.87	27.9	29.9
RPMI 5 mM glucose + 10% FBS, 5.12 µM	9.62	26.4	31.8
RPMI 5 mM glucose + 10% FBS, 15.4 µM	8.77	25.4	32.8
RPMI 5 mM glucose + 10% FBS, 46.1 µM	7.13	22.1	31.8
RPMI 5 mM glucose + 10% dialyzed FBS, 0.000781 µM	99.8	82.4	81.3
RPMI 5 mM glucose + 10% dialyzed FBS, 0.00234 µM	103	88.3	79.9
RPMI 5 mM glucose + 10% dialyzed FBS, 0.00702 µM	104	88.3	87.8
RPMI 5 mM glucose + 10% dialyzed FBS, 0.0211 µM	83	75.2	38.1
RPMI 5 mM glucose + 10% dialyzed FBS, 0.0632 µM	73.7	60.7	27.3
RPMI 5 mM glucose + 10% dialyzed FBS, 0.19 µM	8.37	29.9	27.8
RPMI 5 mM glucose + 10% dialyzed FBS, 0.569 µM	8.28	19.9	29.6
RPMI 5 mM glucose + 10% dialyzed FBS, 1.71 µM	8.09	21.3	30.1
RPMI 5 mM glucose + 10% dialyzed FBS, 5.12 µM	7.93	19.4	26.2
RPMI 5 mM glucose + 10% dialyzed FBS, 15.4 µM	6.37	20	29.7
RPMI 5 mM glucose + 10% dialyzed FBS, 46.1 µM	6.62	18	30.3
